Measured values: patent US7531575B2, “Method of modulating cellular activity and agents useful for same” (Eberhard-Karls-Universität Tübingin, priority 2002, dated 2009)

Key:
Type in all cases: cell-based, murine
[1] = system: iNOS; experiment: iNOS protein immunoblot, LPS-stimulated N9 microglia; conditions: TNL 300 μM
Description: (§1) TNL was a generous gift of Kissei Pharmaceuticals, LPC (Escherichia coli, 0127:BS), phorbol 12-myristate 13-acetate (PMA) and dexamethasone (DEX) were obtained from Sigma, BAY 11-7082 (BAY), NF-κB SN50 inhibitory peptide (SN50), GF 109203X (GFX) and rottlerin (ROT) were purchased from Biomol. PD098059 (PD) was obtained from Calbiochem. Purified murine interferon-γ (IFN-γ) was purchased from Roche Diagnostics. N9 murine microglial cells were a kind gift from P. Ricciardi-Castagnoli (Righi, M. et al. 1989 supra). Cells were cultured in Dulbecco's modified Eagle's medium (DMEM) supplemented with 10% fetal calf serum (FCS), 2 mM glutamine, penicillin (100 unit/mL) and streptomycin (100 μg/mL) and maintained at 37° in an atmosphere of 5% CO2. Viability was assessed by crystal violet staining.
For the preparation of whole cell lysates, the cells were lysed in 0.1 M Tris-HCl (pH 7.2) containing 0.1% NP40, 0.1 mM EDTA and 5 μg/mL phenylmethylsulphonyl fluoride. Twenty micrograms protein was separated by 10-12% SDS-PAGE and electroblotted on nitrocellulose membrane. Equal loading was controlled by Ponceau S staining. Immunodetection was performed using the following antibodies: anti-iNOS rabbit polyclonal antibody (1:1000, Cayman), antiphospho-IκBα mouse monoclonal antibody (1:1000), anti-PKCδ mouse monoclonal antibody (1:2000), antiphospho-MARCKS rabbit polyclonal antibody (1:1000), antiphospho-ERK-1/2, antiphospho-AKT, antiphospho-p38 mouse monoclonal antibodies (1:2000), anti-ERK-1/2, anti-AKT mouse monoclonal antibodies (1:500, all from Signal Transduction Laboratories). Bands were visualized using horseradish peroxidase-conjugated anti-rabbit IgG (1:4000 SantaCruz) or anti-mouse IgG (1:4000, Amersham).

[2] = system: iNOS; experiment: iNOS activity by Griess assay (NO2 release), IFN-γ-stimulated N9 microglia; conditions: N9 cells, IFN-γ 200 u ml, 48 h
Description: (§2) Tranilast was a generous gift of Kissei Pharmaceuticals (Nagano, Japan). Murine recombinant IFN-γ was purchased from Boehringer (Mannheim, Germany). Dexamethasone (DEX) was obtained from Sigma (Deisenhofen, Germany). N9 murine microglial cells were a kind gift from P. Ricciardi-Castagnoli (Milano, Italy) (Righi, M., Mori, L., De Libero, G., Sironi, M., Biondi, A., Mantovani, A., Donini, S. D. and Ricciardi-Castagnoli, P. Eur J Immunol 19(8):1443-1448, 1989). The cells were cultured in Dulbecco's modified Eagle's medium (DMEM) supplemented with 10% foetal calf serum (FCS), 2 mM glutamine and penicillin ([…])/streptomycin (100 μg ml), and maintained at 37° C. in an atmosphere of 5% CO2. Viability was assessed by crystal violet staining.
iNOS activity was assessed by the Griess assay as described elsewhere (Rieger, J., Stander, M., Loschmann, P. A., Heneka, M., Dichgans, J., Klockgether, T. and Weller, M., Oncogene, 17:2323-2332, 1998). Briefly, conditioned supernatant (100 μl) was incubated with an equal volume of 1% sulphanilamide/0.1% naphthyl ethylene diamine dihydrochloride/2.5% H3PO4 (Griess reagent) (Green, L. C., Wagner, D. A., Glogowski, J., Skipper, P. I., Wishnok, J. S, and Tannenbaum, S. R., Anal. Biochem., 126:131-138, 1982), incubated for 5 min at room temperature, and the absorbance at […] determined. Solutions of NaNO2 diluted in DMEM served as standards. The absorbance readings resulting from DMEM alone were subtracted from the sample values. Cell density was assessed using crystal violet staining to control for differences in cell proliferation. iNOS activity is thus expressed here as NO2 accumulated per 48 h per 10^5 cells.

[3] = system: NF-κB; experiment: NF-κB reporter assay, LPS-stimulated N9 microglia; conditions: N9 cells, LPS 10 μg/mL 4 hr, TNL pre-incubation 1 hr
Description: NF-κB reporter gene activity was assayed as previously described (Platten, M. et al. 2001 supra). Briefly, 8×10^3 cells/well were seeded in a 96-well plate and transfected with an NF-κB cis reporter gene plasmid (PathDetect No. 219077, Stratagene) encoding firefly luciferase using FuGene™ transfection reagent (Roche). pFC-MEKK (Stratagene) and pcDNA3 plasmids cotransfected with the reporter plasmid served as positive and negative controls. After freezing and thawing, the cells were lysed in 40 mM Tricine (pH 7.8) containing 50 mM NaCl, 2 mM EDTA, 1 mM MgSO4, 5 mM DTT and 1% Triton X-100. Lysates were assayed using Luciferase assay reagent (40 mM Tricine, pH 7.8, containing 10 mM MgSO4, 0.5 mM EDTA, 10 mM DTT, 0.5 mM coenzyme A, […] and 0.5 mM beetle luciferine). Luminescence was measured in LumiNunc™ plates (Nunc) in a LumimatPlus™ (EG&G Berthold). Values are expressed as relative light units (RLU).

[4] = system: IκBα; experiment: phospho-IκBα immunoblot, IFN-γ-stimulated N9 microglia; conditions: N9 cells, IFN-γ 200 u ml, tranilast 30-300 μM, 4 h preincubation
Description: as §2
For the preparation of whole cell lysates, the cells were rinsed in phosphate-buffered saline (PBS), harvested, centrifuged at 1200×g, lysed in 0.1 M TRIS-HCl (pH 7.2) containing 0.1% NP40, 0.1 mM EDTA and 5 μg ml PMSF for 40 min on ice, and centrifuged at 10,000×g for 10 min. Protein concentration was determined using Biorad reagents with photometric analysis. Proteins (20 μg lane) were separated by 10-12% SDS-PAGE and electroblotted on nitrocellulose. qual protein loading was controlled by Ponceau S staining. […]

[5] = system: MARCKS; experiment: phospho-MARCKS immunoblot in N9 microglia; conditions: N9 cells, co-exposed to TNL (pre-incubation 1 hr)
Description: as §1
For the preparation of whole cell lysates, the cells were lysed in 0.1 M Tris-HCl (pH 7.2) containing 0.1% NP40, 0.1 mM EDTA and 5 μg/mL phenylmethylsulphonyl fluoride. Twenty micrograms protein was separated by 10-12% SDS-PAGE and electroblotted on nitrocellulose membrane. Equal loading was controlled by Ponceau S staining. […]

COc1ccc(/C=C/C(=O)Nc2ccccc2C(=O)O)cc1OC [tranilast, 2-[[3-(3,4-dimethoxyphenyl)-1-oxo-2-propenyl]amino]benzoic acid]
accumulation of iNOS protein after LPS ([1]; N9 cells, LPS 10 μg/mL): suppressed
PMA superinduction of iNOS protein in LPS-stimulated cells ([1]; PMA 100 nM 15 min, LPS 10 μg/mL 24 hr): abolished
inhibition of NO release ([2]; concentration series): concentration-dependent inhibition
reduction of NO release (NO2, Griess assay) ([2]; tranilast 300 μM): 65%
LPS-mediated NF-κB reporter gene activity [3]: did not suppress
IκB phosphorylation in response to IFN-γ [4]: concentration-dependent suppression
MARCKS phosphorylation [5]: inhibited
